One assay relates to E. coli K12. Kind of assay: Metabolic LPS labelling with KDO-N3, Cu(I) click with A488-yne, fluorescence microscopy. The format is cell-based, Escherichia coli.
The test system of a further assay is E. coli 086. Kind of assay: Metabolic labelling with KDO-N3, click chemistry, fluorescence microscopy. The format is cell-based, Escherichia coli. The note with it: KDO-N3 4 mM, 12 hours; A488-yne-Cu(I) click 60 min.
The next assay concerns S. typhimurium 12023. The description is as above. Format: cell-based, Salmonella typhimurium. The note with it: KDO-N3 4 mM, 12 hours; A488-yne-Cu(I) click 60 min.
The next assay has as its system Shewanella oneidensis. Kind of assay: Metabolic labelling with KDO-N3, click chemistry, fluorescence microscopy (negative control strain). The format is cell-based. The note with it: KDO-N3 4 mM, 12 hours, 28° C.; A488-yne-Cu(I) click 60 min.
Assay [1] deals with Legionella pneumophila strain Paris. The format is cell-based. To be noted: KDO-N3 4 mM, 12 hours; A488-yne-Cu(I) click 60 min.
A further assay has as its system Bacillus subtilis. Kind of assay: Metabolic labelling with KDO-N3, click chemistry, fluorescence microscopy (negative control strain). Format: cell-based. The note with it: Gram positive; KDO-N3 4 mM, 12 hours; A488-yne-Cu(I) click 60 min.
The subject of another assay is Staphylococcus aureus. Described as above. Format: cell-based. To be noted: Gram positive; KDO-N3 4 mM, 12 hours; A488-yne-Cu(I) click 60 min.
The mark [2] stands for this setting: mixture with B. subtilis, LB, 12 hours, 696 analyzed cells.
[3] abbreviates: mixture with E. coli, LB, 12 hours, 696 analyzed cells.

As for `[N-]=[N+]=NC[C@@H](O)[C@@H](O)[C@H](O)[C@H](O)CC(=O)C(=O)O` [KDO-N3, 8-azido-3,8-dideoxy-D-manno-octulosonic acid], the cell-surface labeling entry in the assay on E. coli K12 (KDO-N3 4 mM, 12 hours, A488-yne-Cu(I) click 60 min) is “efficient and well defined cell-surface labeling”; with E. coli 086, “efficient and well defined cell-surface labeling”; in the assay on S. typhimurium 12023, “efficient and well defined cell-surface labeling”; in the assay with Shewanella oneidensis it was “no labeling”; in assay [1], “efficient and well defined cell-surface labeling”; in the assay on Bacillus subtilis, “no labeling”. Further, in the assay on Staphylococcus aureus, the cell-surface labeling entry is listed as “no labeling”. The “labeling of bacteria (fluorescence)” value in the assay on E. coli K12 ([…], click with TGTA and A488-yne, after 5 min, control without KDO-N3 no signal) is recorded as “very bright labeling”. In addition, the location of fluorescence entry with E. coli K12 (after click labelling with A488-yne, 5 min) is given as “mostly evident around the cell periphery”. Moreover, the “E. coli KDO negative” value in the assay on E. coli K12 sodA-mCherry (9 cells, standard method error range about 10%) was “about 2%”. In addition, in the assay with E. coli K12 sodA-mCherry (mixture with B. subtilis), the “assimilation in E. coli cells of the mixture” value is recorded as “assimilated in substantially only cultivable E. coli cells”. In the assay with E. coli K12 sodA-mCherry (setting [2]), the “KDO-N3+ cells, mCherry + (E. coli)” value came out at 517. For the same compound, the “KDO-N3− cells, mCherry + (E. coli)” value with E. coli K12 sodA-mCherry (setting [2]) came out at 9. Besides, the “B. subtilis false positive” value in the assay on B. subtilis (4 KDO-N3+ B. subtilis cells) is “about 2%”. Moreover, in the assay with B. subtilis (mixture with E. coli), the “assimilation in B. subtilis cells of the mixture” value was “not in cultivable B. subtilis cells”. Also, the “KDO-N3+ cells, mCherry − (B. subtilis)” value in the assay on B. subtilis (setting [3]) is 4. The “KDO-N3− cells, mCherry − (B. subtilis)” value in the assay with B. subtilis (setting [3]) amounted to 166.

Values taken from patent US10571469B2, “Kit for labelling bacteria” (Centre National de la Recherche Scientifique (CNRS), priority 2012, dated 2020).
